The target in this test is T1, UDP-3-O-acyl-N-acetylglucosamine deacetylase (Pseudomonas aeruginosa (strain ATCC 15692 / PAO1 / 1C / PRS 101 / LMG12228), UniProt P47205).
T1 sequence (P47205 whole entry): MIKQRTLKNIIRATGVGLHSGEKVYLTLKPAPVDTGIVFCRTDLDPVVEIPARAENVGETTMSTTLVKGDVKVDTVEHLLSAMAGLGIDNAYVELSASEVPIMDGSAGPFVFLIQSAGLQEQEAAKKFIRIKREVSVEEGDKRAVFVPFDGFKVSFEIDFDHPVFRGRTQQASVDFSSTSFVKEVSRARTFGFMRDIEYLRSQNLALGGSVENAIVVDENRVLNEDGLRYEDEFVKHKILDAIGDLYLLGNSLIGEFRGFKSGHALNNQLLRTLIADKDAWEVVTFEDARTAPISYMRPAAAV

One compound from ChEMBL document CHEMBL3639079, “Hydroxamic acid derivative” (2015) can be followed below.

Structures are written as SMILES.

Description: The reaction was performed in 40 mmol/L of Hepes buffer solution (pH 8.0) supplemented with 0.02% Bridge 35 and 80 µmol/L of dithiothreitol. To terminate the reaction, 0.2 mol/L of borax was added to the reaction mixture.

As to `CNC(=O)C(C(=O)NO)N(C)C(=O)c1ccc(-c2ccc(OCCCN3CCOCC3)cc2)cc1` (stereo unspecified), half-maximal inhibition (IC50) was put at 6.7 nM.
